Experimental findings from US20220402867A1, “SULFO-SUBSTITUTED BIARYL COMPOUND OR SALT THEREOF, PREPARATION METHOD THEREFOR, AND USE THEREOF” (Shanghai Litedd Co., Ltd., priority 2019, published 2022) are described below.

For series [1], the target named is T1, RORγt (RORγ-LBD chimeric receptor) (Homo sapiens, UniProt P51449).
T1 construct: host or cells: HEK293T
T1 sequence (P51449 269-508 limits assumed): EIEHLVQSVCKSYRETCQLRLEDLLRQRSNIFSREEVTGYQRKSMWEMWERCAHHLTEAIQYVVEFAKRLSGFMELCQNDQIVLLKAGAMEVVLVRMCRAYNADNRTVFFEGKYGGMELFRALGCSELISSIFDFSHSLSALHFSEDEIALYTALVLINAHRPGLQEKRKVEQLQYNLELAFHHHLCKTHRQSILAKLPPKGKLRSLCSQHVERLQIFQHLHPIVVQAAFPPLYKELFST
Briefly: Luciferase reporter gene assay of RORγt agonistic activity in HEK293T cells. The series is classed as cell-based. Also on record: Emax: dose or concentration left out as unconfirmed. Conditions: for EC50: HEK293T, GAL4 luciferase reporter, read-out: EC50; for Emax: HEK-293T. An excerpt: This assay was basically carried out according to the method described in the literature ONCOIMMUNOLOGY, 2016, VOL. 5, NO. 12, e1254854.
The RORγ-LBD coding sequence was inserted into pBIND plasmid (Promega, E1581). This expression vector and a reporter vector (pGL4.35 carrying a stably integrated luciferase reporter gene driven by GAL4 promoter) were co-expressed in HEK293T host cells. When the agonist binds to the corresponding chimeric receptor, the chimeric receptor binds to the GAL4 binding site on the reporter gene carrier and stimulates reporter gene expression. The agonistic activity of the compound on RORγ was determined according to the intensity of the chemiluminescence signal.
1.1 All test compounds were serially diluted at 3-fold dilution with DMSO, with 10 serial dilutions starting from 10 mM; LIT-00093 solution was prepared similarly. […] 1.4 The compound plate was sealed and shaken for 5 min.
Cells were cultured according to ATCC standard operation, and 6*10^6 HEK293T cells were seeded into 100 mm cell culture dishes, cultured overnight in a 37° C., 5% CO2 incubator, and then transfected. Compounds of corresponding concentrations were added for treatment, and the Steady-Glo™ kit (Lot E 2520) was used for further detection.
Chemiluminescence values were detected with Envision 2104; EC50 values were calculated.
% Activity was calculated with the following equation: […]
RLU: […] R L Upositive: average value of positive control R L Uvehicle: average value of negative control
The log values of the compound concentration and % Activity were fitted using Graphad 8.0, to calculate EC50s of the compounds.
Background: A reporter such as luciferase makes a cellular process visible.

A short description of series [2]: Metabolic stability in mouse liver microsomes. It counts as in vitro ADME, CD-1 mice. Conditions: for half-life: CD-1; for microsomal CLint: CD-1, 0.5 mg protein/mL. An excerpt:
(§1) According to standard methods of in vitro metabolic stability studies in the art, eg., the methods described in Kerns, Edward H. and Di Li (2008). Drug-like Properties: Concepts, Structure Design and Methods: from ADME to Toxicity Optimization. San Diego: Academic Press; Di, Li et al., Optimization of a Higher Throughput Microsomal Stability Screening Assay for Profiling Drug Discovery Candidates, J. Biomol. Screen. 2003, The method described in 8(4), 453, the liver microsomal metabolic stability test of the compounds of the present disclosure was carried out analogously as follows.
(§2) The incubation system contained 0.5 mg protein/mL microsomes, cofactors, and PBS, was pre-incubated at 37° C. for 3 min, and then added the substrate (i.e., the test compounds) to initiate the reaction. Samples were taken at 0, 1, 5, 10, 15, 20, 30 and 60 min from the start of the reaction, and an appropriate terminator was added to terminate the reaction.
(§3) The terminator was an ice acetonitrile solution containing 100 ng/mL tolbutamide and 100 ng/mL labetalol.
(§4) Sample treatment (n=3): each appropriate sample was added, vortexed and centrifuged at high speed. The supernatants were collected, and the substrate was detected by HPLC-MS/MS. The peak area at the 0 min was taken as 100%. The peak areas at other time points were converted to percentage of the remaining amount. The natural logarithms of the percentage of remaining amount at each time point was plotted against the incubation time, and the slope (−k) was calculated by linear regression. Then, Clint (uL/min/mg) and half-life (T½, min) of the compounds were calculated following the equation of the inherent clearance rate (Clint)=(k* volume of incubation solution)/mass of liver microsomes.
(Liver microsomes are a subcellular fraction often used to study metabolism.)

The next series has as its target T2, GST-RORγ LBD (263-509) (Homo sapiens, UniProt P51449).
T2 construct: GST-RORγ LBD ((263-509) (produced at ChemPartner))
T2 sequence (P51449 263-509): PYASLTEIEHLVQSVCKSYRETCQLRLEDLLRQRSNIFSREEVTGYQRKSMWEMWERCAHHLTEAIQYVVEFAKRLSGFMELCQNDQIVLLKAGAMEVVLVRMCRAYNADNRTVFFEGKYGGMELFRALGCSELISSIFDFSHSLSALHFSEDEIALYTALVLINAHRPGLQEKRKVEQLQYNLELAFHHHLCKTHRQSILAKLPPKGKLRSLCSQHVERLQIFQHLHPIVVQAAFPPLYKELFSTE
Description: TR-FRET assay of agonistic activity on RORγ receptor. Conditions: for EC50: TR-FRET, GST-RORγ LBD with Biotin-SRC1; for Emax: maximum activation rate, TOP of fitted curve. It counts as biochemical. As to the method: A time-resolved fluorescence resonance energy transfer (TR-FRET) assay was used for the compounds of the present disclosure, to determine the agonistic activity of the compounds on the RORγ protein receptor. The agonistic activity is expressed by the concentration for 50% of maximal effect (EC50). The experiment was performed basically with reference to the methods described in ONCOIMMUNOLOGY, 2016, VOL. 5, NO. 12, e1254854.
1. Preparation of RORγ Basal Buffer
A 100 mL basal buffer was prepared, mixed homogeneously and stored for use;
The compounds of the examples shown in the table below were prepared into solutions with DMSO as the solvent, serially diluted at 3-fold dilution to 10 concentrations starting from 10 mM, and added to the corresponding wells of a 384-well plate with each concentration of each compound in duplicate;
a. A 75 nM solution of GST-RORγ LBD ((263-509) (produced at ChemPartner)) and a 4 nM solution of Biotin-SRC1 (Glsbiochem) were prepared with the above basal buffer. The two solutions were 1:1 mixed evenly, and 10 μL of the mixed solution was added into each well of the above 384-well plate. The plate was immediately centrifugated at 1000 rpm for 10 seconds; b. A 1 nM solution of Anti-GST Eu (Cisbio, #61GSTKLA) and a 50 nM solution of SA-APC (Cisbio, […]) were prepared with the above basal buffer. The two solutions were 1:1 mixed evenly, and 10 μL of the mixed solution was added into each well of the above 384-well plate. The plate was immediately centrifugated at 1000 rpm for 10 seconds; c. The resulting 384-well plate was incubated at room temperature for 15 minutes. Data were read on an Envision microplate reader, EC50 values and E max % were calculated.
a. Readings were taken at 665 nm and 615 nm wavelengths respectively on the Envision Microplate Reader, and the ratios between them were normalized. b. Calculation was carried out with the following equation: […]
wherein X is the reading of compounds, Min is the reading of the blank solution, and Max is the reading of 10 μM SRC. c. The concentration-response curve data were fitted by a four-parameter logistic nonlinear regression model, and Emax was the TOP value of the fitted curve.

A short description of series [3]: Metabolic stability in human liver microsomes. The series is classed as in vitro ADME. Conditions: for microsomal CLint: 0.5 mg protein/mL.
Excerpt: as §1, §2, §3, §4

A value given as a limit tells only on which side of the number the result lay.

As a reminder, the EC50 is the concentration that produces a half-maximal response. The Emax is the greatest response seen or fitted, relative to the assay's reference. The term half-life denotes the time in which the quantity being followed falls by half. For orientation: microsomal CLint means the capacity of the preparation to metabolise the compound, expressed as a volume cleared per time.

In the case of `CS(=O)(=O)c1ccc(-c2c(Cl)cc(NC(=O)Cc3ccc(S(C)(=O)=O)cn3)cc2Cl)cc1` [Example 10, N-(2,6-Dichloro-4′-(methylsulfonyl)-[1,1′-biphenyl]-4-yl)-2-(5-(methylsulfonyl)pyridin-2-yl)acetamide], in series [1], the EC50 was 1460 nM and the maximal effect (Emax) amounted to 59%. Besides, in series [2], the “% Remaining (T = 60 min)” value came out at 89.90%, the half-life was greater than 2.42 h and the microsomal CLint is less than 9.6 µL/min/mg. In addition, at GST-RORγ LBD (263-509), the EC50 was 114 nM and the maximum response (Emax) was 159%. In addition, in series [3], the half-life was greater than 2.42 h, the microsomal CLint was less than 9.6 µL/min/mg and the “% Remaining (T = 60 min)” value is given as 92.5%.

As for `CCS(=O)(=O)c1ccc(C(CO)C(=O)Nc2cc(Cl)c(-c3ccc(S(=O)(=O)C4CC4)cc3)c(Cl)c2)cc1` (centres unmarked) [Example 22-1, N-(2,6-Dichloro-4′-(cyclopropylsulfonyl)-[1,1′-biphenyl]-4-yl)-2-(4-(ethylsulfonyl)phenyl)-3-hydroxypropionamide], in series [1], the EC50 came out at 139 nM and the Emax is 73.8%. In addition, on GST-RORγ LBD (263-509), the EC50 is 7 nM and the Emax stood at 179%.

Regarding `CCS(=O)(=O)c1ccc(-c2c(Cl)cc(NCC(C(=O)O)c3ccc(S(=O)(=O)CC)cc3)cc2Cl)cc1` (centres unmarked) [Example 12-1, 3-(2,6-Dichloro-4′-(ethylsulfonyl)-[1,1′-biphenyl]-4-amino)-2-(4-(ethylsulfonyl)phenyl)propionic acid], the EC50 in series [1] was greater than 3000 nM. Moreover, in series [2], the “% Remaining (T = 60 min)” value is given as 71% and the half-life turned out to be 2.11 h. At GST-RORγ LBD (263-509), this molecule showed an EC50 of 6.8 nM and an Emax of 186%. Further, in series [3], the half-life is greater than 2.42 h, the microsomal CLint is less than 9.6 µL/min/mg and the “% Remaining (T = 60 min)” value is listed as 107.4%.

For the molecule `CCS(=O)(=O)c1ccc(CC(=O)Nc2cc(Cl)c(-c3ccc(S(=O)(=O)CC)cc3)c(Cl)c2)cc1` [Example 1, N-(2,6-Dichloro-4′-(ethylsulfonyl)-[1,1′-biphenyl]-4-yl)-2-(4-(ethylsulfonyl)phenyl)acetamide], in series [1], the EC50 came out at 47 nM and the maximum response (Emax) is 87.1%. In addition, in series [2], the “% Remaining (T = 60 min)” value turned out to be 11.70%, the half-life is 0.342 h and the microsomal CLint is 67.6 µL/min/mg. At GST-RORγ LBD (263-509), this molecule came in with an EC50 of 14.5 nM and an Emax of 213%. In addition, in series [3], the half-life was 0.697 h, the microsomal CLint was 33.1 µL/min/mg and the “% Remaining (T = 60 min)” value was 32.4%.

`CS(=O)(=O)c1ccc(C(CO)C(=O)Nc2cc(Cl)c(-c3ccc(S(=O)(=O)C4CC4)cc3)c(Cl)c2)cc1` (centres unmarked) [Example 33, N-(2,6-Dichloro-4′-(cyclopropylsulfonyl)-[1,1′-biphenyl]-4-yl)-2-(4-(methylsulfonyl)phenyl)-3-hydroxypropionamide]: the EC50 in series [1] is 93 nM; at GST-RORγ LBD (263-509), 13.3 nM. Further, the maximal response (Emax) turned out to be 69.8% in series [1] and 202% at GST-RORγ LBD (263-509).

Consider `CCS(=O)(=O)c1ccc(CC(=O)Nc2cc(Cl)c(-c3ccc(S(=O)(=O)C(C)C)cc3)c(Cl)c2)cc1` [Example 3, N-(2,6-Dichloro-4′-(isopropylsulfonyl)-[1,1′-biphenyl]-4-yl)-2-(4-(ethylsulfonyl)phenyl)acetamide], for which, in series [1], the EC50 is 14 nM and the Emax worked out at 50.5%. In addition, at GST-RORγ LBD (263-509), a half-maximal response (EC50) required 14 nM and the Emax was 223%. Moreover, in series [3], the half-life was determined as 0.232 h and the “% Remaining (T = 60 min)” value is 4.6%.

With `COCC(C(=O)Nc1ccc(-c2ccc(S(=O)(=O)C3CC3)cc2)c(C(F)(F)F)c1)c1ccc(S(C)(=O)=O)cc1` (centres unmarked) [Example 42, N-(4′-(Cyclopropylsulfonyl)-2-(trifluoromethyl)-[1,1′-biphenyl]-4-yl)-3-methoxy-2-(4-(methylsulfonyl)phenyl)propionamide], in series [1], the EC50 was determined as 105 nM and the Emax worked out at 60.7%. Further, on GST-RORγ LBD (263-509), the EC50 worked out at 12.6 nM and the Emax was determined as 194%.

With `CS(=O)(=O)c1ccc(CC(=O)Nc2cc(Cl)c(-c3ccc(S(C)(=O)=O)cc3)c(Cl)c2)cc1` [Example 7, N-(2,6-Dichloro-4′-(methylsulfonyl)-[1,1′-biphenyl]-4-yl)-2-(4-(methylsulfonyl)phenyl)acetamide], in series [1], the half-maximal effective concentration (EC50) turned out to be 41 nM and the Emax was determined as 39.4%. For the same molecule, in series [2], the “% Remaining (T = 60 min)” value worked out at 88.20%, the half-life was greater than 2.42 h and the intrinsic metabolic clearance (microsomal CLint) is less than 9.6 µL/min/mg. At GST-RORγ LBD (263-509), a half-maximal response (EC50) required 10 nM and the Emax is 169%. Moreover, in series [3], the half-life is greater than 2.42 h, the microsomal CLint is less than 9.6 µL/min/mg and the “% Remaining (T = 60 min)” value is listed as 80.1%.
